{
  "source": "paper PMC11191687",
  "key": {"[1]": {"assay": "as series B (acyl azide from hydrazide, MeCN cosolvent), isolated after prep HPLC", "settings": "the molecule shown is the open-chain precursor, aq phosphate buffer (6 M GdmCl) diluted with 2 vol 50% MeCN/water, 4.0 mM, 2 steps"}, "[2]": {"assay": "head-to-tail lactamisation of unprotected peptide acyl azide (from C-terminal hydrazide, 20 equiv NaNO2, pH 3, -15 C, then NaHCO3 to pH ~7), biphasic EtOAc/buffer", "settings": "21-membered ring, aq phosphate buffer (6 M GdmCl, 50 mM NaH2PO4, 1.5 mM EDTA) / EtOAc biphasic, 3.0 mM, 0.25 h, 2 steps"}, "[3]": {"assay": "as series A (acyl azide from hydrazide, biphasic EtOAc/buffer), isolated after prep HPLC", "settings": "21-membered ring, aq phosphate buffer (6 M GdmCl) / EtOAc biphasic, 3.0 mM, 0.25 h, 2 steps"}, "[4]": {"settings": "from C=CC[C@H](NC(=O)[C@H](CC(C)C)NC(=O)[C@H](CC(C)C)N(C)C(=O)[C@H](CO)NC(=O)[C@H](Cc1ccc(O)c([N+](=O)[O-])c1)NC(=O)[C@H](CC(C)C)N(C)C(=O)[C@@H](N)Cc1c[nH]c2ccccc12)C(=O)N=[N+]=[N-]"}, "[5]": {"settings": "from C=CC[C@H](NC(=O)[C@H](CC(C)C)NC(=O)[C@H](CC(C)C)N(C)C(=O)[C@@H](NC(=O)[C@H](Cc1ccc(O)c([N+](=O)[O-])c1)NC(=O)[C@H](CC(C)C)N(C)C(=O)[C@@H](N)Cc1c[nH]c2ccccc12)[C@@H](C)O)C(=O)N=[N+]=[N-]"}},
  "data": [
    {"smiles": "CCCCC(C)CCC(=O)N[C@@H](CCN)C(=O)N[C@H](C(=O)N[C@@H](CCN)C(=O)N[C@@H](CCN)C(=O)N[C@@H](CCN)C(=O)N[C@H](CC(C)C)C(=O)N[C@@H](CC(C)C)C(=O)N[C@@H](CCN)C(=O)N[C@@H](CCN)C(=O)N[C@H](C(=O)N=[N+]=[N-])[C@@H](C)O)[C@@H](C)O", "note": "(some centres unmarked)", "values": [
      {"measurement": "ring closure, yield over several steps", "setting": "[1]; 23-membered ring", "result": 3, "unit": "%"}
    ]},
    {"smiles": "CC(=O)N[C@@H](Cc1ccccc1)C(=O)N[C@@H](CCCN)C(=O)N1CCC[C@H]1C(=O)N[C@H](Cc1ccc(O)cc1)C(=O)N[C@@H](Cc1c[nH]c2ccccc12)C(=O)N[C@@H](CCCNC(=N)N)C(=O)N=[N+]=[N-]", "note": "[Ac-Phe-Orn(cyclises via side chain)-Pro-D-Tyr-Trp-Arg-N3]", "values": [
      {"measurement": "ring closure, yield over several steps", "setting": "[1]; 18-membered ring", "result": 62, "unit": "%"}
    ]},
    {"smiles": "CC(C)C[C@H](NC(=O)[C@H](CCCN)NC(=O)[C@@H](NC(=O)[C@H](Cc1ccc(O)cc1)NC(=O)[C@H](CCC(N)=O)NC(=O)[C@H](CC(N)=O)NC(=O)[C@@H](Cc1ccccc1)NC(=O)[C@H](Cc1ccccc1)NC(=O)[C@@H]1CCCN1C(=O)[C@H](N)Cc1ccccc1)C(C)C)C(=O)N=[N+]=[N-]", "note": "[H-D-Phe-Pro-Phe-D-Phe-Asn-Gln-Tyr-Val-Orn-Leu-N3]", "values": [
      {"measurement": "ring closure, yield over several steps", "setting": "[1]; 30-membered ring, 0.25 h", "result": 68, "unit": "%"}
    ]},
    {"smiles": "CC(C)C[C@H](NC(=O)[C@H](CCCN)NC(=O)[C@@H](NC(=O)[C@@H]1CCCN1C(=O)[C@@H](Cc1ccccc1)NC(=O)[C@H](CC(C)C)NC(=O)[C@H](CCCN)NC(=O)[C@@H](NC(=O)[C@@H]1CCCN1C(=O)[C@H](N)Cc1ccccc1)C(C)C)C(C)C)C(=O)N=[N+]=[N-]", "note": "[H-D-Phe-Pro-Val-Orn-Leu-D-Phe-Pro-Val-Orn-Leu-N3]", "values": [
      {"measurement": "ring closure, yield over several steps", "setting": "[1]; 30-membered ring", "result": 63, "unit": "%"}
    ]},
    {"smiles": "CC(C)C[C@H](NC(=O)[C@H](Cc1ccc(O)cc1)NC(=O)[C@@H]1CCCN1C(=O)CN)C(=O)N[C@@H](C)C(=O)N=[N+]=[N-]", "note": "[H-Gly-Pro-Tyr-Leu-Ala-N3]", "values": [
      {"measurement": "ring closure, yield over several steps", "setting": "[1]; 15-membered ring", "result": 51, "unit": "%"}
    ]},
    {"smiles": "CSCC[C@H](NC(=O)[C@@H](NC(=O)[C@H](CC(C)C)NC(=O)CNC(=O)[C@@H]1CCCN1C(=O)[C@@H](NC(=O)CNC(=O)[C@@H](N)Cc1ccccc1)C(C)C)C(C)C)C(=O)N=[N+]=[N-]", "note": "[H-Phe-Gly-Val-Pro-Gly-Leu-Val-Met-N3]", "values": [
      {"measurement": "ring closure, yield over several steps", "setting": "[1]; 24-membered ring", "result": 12, "unit": "%"}
    ]},
    {"smiles": "CC[C@H](C)[C@H](NC(=O)CNC(=O)[C@H](CO)NC(=O)[C@@H]1CCCN1C(=O)[C@@H](NC(=O)[C@@H]1CCCN1)C(C)C)C(=O)N[C@@H](Cc1ccccc1)C(=O)NCC(=O)N=[N+]=[N-]", "note": "[H-Pro-Val-Pro-Ser-Gly-Ile-Phe-Gly-N3]", "values": [
      {"measurement": "ring closure, yield over several steps", "setting": "[1]; 24-membered ring", "result": 42, "unit": "%"}
    ]},
    {"smiles": "C=CC[C@@H]1NC(=O)[C@H](CC(C)C)NC(=O)[C@H](CC(C)C)N(C)C(=O)[C@H](CO)NC(=O)[C@H](Cc2ccc(O)c([N+](=O)[O-])c2)NC(=O)[C@H](CC(C)C)N(C)C(=O)[C@H](Cc2c[nH]c3ccccc23)NC1=O", "note": "[H-Trp-N-Me-Leu-Tyr(3-NO2)-Ser-N-Me-Leu-Leu-allylGly-N3]", "values": [
      {"measurement": "ring closure, conversion by HPLC", "setting": "[2]; [4]", "result": 84, "unit": "%"},
      {"measurement": "ring closure, yield over several steps", "setting": "[3]; [4]", "result": 42, "unit": "%"}
    ]},
    {"smiles": "C=CC[C@@H]1NC(=O)[C@H](CC(C)C)NC(=O)[C@H](CC(C)C)N(C)C(=O)[C@H]([C@@H](C)O)NC(=O)[C@H](Cc2ccc(O)c([N+](=O)[O-])c2)NC(=O)[C@H](CC(C)C)N(C)C(=O)[C@H](Cc2c[nH]c3ccccc23)NC1=O", "note": "[H-Trp-N-Me-Leu-Tyr(3-NO2)-Thr-N-Me-Leu-Leu-allylGly-N3]", "values": [
      {"measurement": "ring closure, conversion by HPLC", "setting": "[2]; [5]", "result": 78, "unit": "%"},
      {"measurement": "ring closure, yield over several steps", "setting": "[3]; [5]", "result": 35, "unit": "%"}
    ]}
  ]
}
